Source: patent publication US9139609B2, “C-4″ position substituted macrolide derivative” (priority 2011, dated 2015)
Converted amounts (≈) assume the structure as drawn.

Key:
Type in all cases: cell-based
[1] = system: Haemophilus infuenzae ATCC43095; test: In vitro antibacterial activity, microbroth dilution method (CLSI method), test bacterium A; conditions: read-out: MIC (minimum inhibitory concentration), test bacterium A
Procedure: (§1) In vitro antibacterial activities of the compounds of the present invention against various test bacteria were measured according to the microbroth dilution method (CLSI method). Among them, the bacteria C, D and E are erythromycin resistant bacteria. The MIC values (minimum inhibitory concentration, μg/ml) for the test bacteria A and B are exemplified in Table 22.

[2] = system: Streptococcus pneumoniae ATCC49619; test: In vitro antibacterial activity, microbroth dilution method (CLSI method), test bacterium B; conditions: read-out: MIC (minimum inhibitory concentration), test bacterium B
Procedure: as §1

[3] = system: Streptococcus pyogenes M808; test: In vitro antibacterial activity, microbroth dilution method (CLSI method), test bacterium D (erythromycin resistant); conditions: read-out: MIC (minimum inhibitory concentration), test bacterium D
Procedure: as §1

[4] = system: Streptococcus pneumoniae ATCC700904; test: In vitro antibacterial activity, microbroth dilution method (CLSI method), test bacterium C (erythromycin resistant); conditions: read-out: MIC (minimum inhibitory concentration), test bacterium C
Procedure: as §1

SMILES | MIC [1] | MIC [2] | MIC [3] | MIC [4]
CC[C@H]1OC(=O)[C@H](C)[C@@H](O[C@H]2C[C@@](C)(OC)[C@@](O)(CN(C)CCN(C)C(C)(C)c3ccccc3OC)[C@H](C)O2)[C@H](C)[C@@H](O[C@@H]2O[C@H](C)C[C@H](N(C)C)[C@H]2O)[C@]2(C)C[C@@H](C)C(O2)[C@H](C)[C@H]2NC(=O)O[C@@]21C [Example332] | 4 µg/mL (≈ 4.04 µM) | 0.06 µg/mL (≈ 0.0605 µM) | – | –
CC[C@H]1OC(=O)[C@H](C)[C@@H](O[C@H]2C[C@@](C)(OC)[C@@](O)(CN(C)CCN(CC)C(=O)OC)[C@H](C)O2)[C@H](C)[C@@H](O[C@@H]2O[C@H](C)C[C@H](N(C)C)[C@H]2O)[C@@](C)(OC)C[C@@H](C)C(=O)[C@H](C)[C@H]2NC(=O)O[C@@]21C [Example264] | 8 µg/mL (≈ 8.46 µM) | 0.06 µg/mL (≈ 0.0635 µM) | – | –
CC[C@H]1OC(=O)[C@H](C)[C@@H](O[C@H]2C[C@@](C)(OC)[C@@](O)(CN(C)CCN(CC)CC)[C@H](C)O2)[C@H](C)[C@@H](O[C@@H]2O[C@H](C)C[C@H](N(C)C)[C@H]2O)[C@@](C)(OC)C[C@@H](C)C(=O)[C@H](C)[C@H]2N(CCN3CCNS3(=O)=O)C(=O)O[C@]12C [Example 440] | – | – | 4 to 8 µg/mL (≈ 3.76 to 7.52 µM) | 0.12 to 0.25 µg/mL (≈ 0.113 to 0.235 µM)
CC[C@H]1OC(=O)[C@H](C)[C@@H](O[C@H]2C[C@@](C)(OC)[C@@](O)(CN(C)CCN3C4CCC3CC4)[C@H](C)O2)[C@H](C)[C@@H](O[C@@H]2O[C@H](C)C[C@H](N(C)C)[C@H]2O)[C@@](C)(OC)C[C@@H](C)C(=O)[C@H](C)[C@H]2N(CCNS(C)(=O)=O)C(=O)O[C@]12C [Example446] | 4 µg/mL (≈ 3.77 µM) | 0.03 µg/mL (≈ 0.0283 µM) | – | –
CC[C@H]1OC(=O)[C@H](C)[C@@H](O[C@H]2C[C@@](C)(OC)[C@@](O)(CN(CC)CCN(CC)CC)[C@H](C)O2)[C@H](C)[C@@H](O[C@@H]2O[C@H](C)C[C@H](N(C)C)[C@H]2O)[C@@](C)(OC)C[C@@H](C)C(=O)[C@H](C)[C@H]2N(CCNS(C)(=O)=O)C(=O)O[C@]12C [Example413] | 4 µg/mL (≈ 3.81 µM) | 0.03 µg/mL (≈ 0.0286 µM) | – | –
CC[C@H]1OC(=O)[C@H](C)[C@@H](O[C@H]2C[C@@](C)(OC)[C@@](O)(CN(C)CCN(C)C(C)(C)c3ccccc3OC)[C@H](C)O2)[C@H](C)[C@@H](O[C@@H]2O[C@H](C)C[C@H](N(C)C)[C@H]2O)[C@]2(C)C[C@@H](C)C(O2)[C@H](C)[C@H]2NC(=O)O[C@@]21C [Example 332] | – | – | ≥ 16 µg/mL | 0.5 to 2 µg/mL (≈ 0.504 to 2.02 µM)
CC[C@H]1OC(=O)[C@H](C)[C@@H](O[C@H]2C[C@@](C)(OC)[C@@](O)(CN(C)CCN(C(C)C)C(C)C)[C@H](C)O2)[C@H](C)[C@@H](O[C@@H]2O[C@H](C)C[C@H](N(C)C)[C@H]2O)[C@@](C)(OC)C[C@@H](C)C(=O)[C@H](C)[C@H]2N(CCOS(N)(=O)=O)C(=O)O[C@]12C [Example 456] | – | – | ≤ 2 µg/mL | 0.12 to 0.25 µg/mL (≈ 0.113 to 0.234 µM)
CC[C@H]1OC(=O)[C@H](C)[C@@H](O[C@H]2C[C@@](C)(OC)[C@@](O)(CN(C)CCN(C(C)C)C(C)C)[C@H](C)O2)[C@H](C)[C@@H](O[C@@H]2O[C@H](C)C[C@H](N(C)C)[C@H]2O)[C@@](C)(OC)C[C@@H](C)C(=O)[C@H](C)[C@H]2N(CCS(=O)(=O)NC)C(=O)O[C@]12C [Example 451] | – | – | 4 to 8 µg/mL (≈ 3.76 to 7.52 µM) | 0.12 to 0.25 µg/mL (≈ 0.113 to 0.235 µM)
CC[C@H]1OC(=O)[C@H](C)[C@@H](O[C@H]2C[C@@](C)(OC)[C@@](O)(CN(C)CCN(CC)C3CCC3)[C@H](C)O2)[C@H](C)[C@@H](O[C@@H]2O[C@H](C)C[C@H](N(C)C)[C@H]2O)[C@@](C)(OC)C[C@@H](C)C(=O)[C@H](C)[C@H]2N(CCCS(C)(=O)=O)C(=O)O[C@]12C [Example 418] | – | – | ≤ 2 µg/mL | 0.12 to 0.25 µg/mL (≈ 0.113 to 0.236 µM)
CC[C@H]1OC(=O)[C@H](C)[C@@H](O[C@H]2C[C@@](C)(OC)[C@@](O)(CN(C)CCN(CC)C(=O)OC)[C@H](C)O2)[C@H](C)[C@@H](O[C@@H]2O[C@H](C)C[C@H](N(C)C)[C@H]2O)[C@@](C)(OC)C[C@@H](C)C(=O)[C@H](C)[C@H]2NC(=O)O[C@@]21C [Example 264] | – | – | ≥ 16 µg/mL | 0.12 to 0.25 µg/mL (≈ 0.127 to 0.264 µM)
CC[C@H]1OC(=O)[C@H](C)[C@@H](O[C@H]2C[C@@](C)(OC)[C@@](O)(CN(C)C(=O)CN(CC)CC)[C@H](C)O2)[C@H](C)[C@@H](O[C@@H]2O[C@H](C)C[C@H](N(C)C)[C@H]2O)[C@@](C)(OC)C[C@@H](C)C(=O)[C@H](C)[C@H]2NC(=O)O[C@@]21C [Example 329] | – | – | ≥ 16 µg/mL | 0.5 to 2 µg/mL (≈ 0.538 to 2.15 µM)
CC[C@H]1OC(=O)[C@H](C)[C@@H](O[C@H]2C[C@@](C)(OC)[C@@](O)(CN(CC)CCN(CC)CC)[C@H](C)O2)[C@H](C)[C@@H](O[C@@H]2O[C@H](C)C[C@H](N(C)C)[C@H]2O)[C@@](C)(OC)C[C@@H](C)C(=O)[C@H](C)[C@H]2N(CCNS(C)(=O)=O)C(=O)O[C@]12C [Example 413] | – | – | 4 to 8 µg/mL (≈ 3.81 to 7.62 µM) | 0.12 to 0.25 µg/mL (≈ 0.114 to 0.238 µM)
CC[C@H]1OC(=O)[C@H](C)[C@@H](O[C@H]2C[C@@](C)(OC)[C@@](O)(CN(C)CCN(CC)CC)[C@H](C)O2)[C@H](C)[C@@H](O[C@@H]2O[C@H](C)C[C@H](N(C)C)[C@H]2O)[C@@](C)(OC)C[C@@H](C)C(=O)[C@H](C)[C@H]2N(O)C(=O)O[C@]12C [Example 170] | – | – | 4 to 8 µg/mL (≈ 4.3 to 8.59 µM) | 0.12 to 0.25 µg/mL (≈ 0.129 to 0.268 µM)
CC[C@H]1OC(=O)[C@H](C)[C@@H](O[C@H]2C[C@@](C)(OC)[C@@](O)(CN(C)CCN(CC)CC)[C@H](C)O2)[C@H](C)[C@@H](O[C@@H]2O[C@H](C)C[C@H](N(C)C)[C@H]2O)[C@@](C)(OC)C[C@@H](C)C(=O)[C@H](C)[C@H]2N(CC3CCS(=O)(=O)C3)C(=O)O[C@]12C (some centres unmarked) [Example 154] | – | – | 4 to 8 µg/mL (≈ 3.82 to 7.64 µM) | 0.12 to 0.25 µg/mL (≈ 0.115 to 0.239 µM)
CC[C@H]1OC(=O)[C@H](C)[C@@H](O[C@H]2C[C@@](C)(OC)[C@@](O)(CN(C)CCN(C)C)[C@H](C)O2)[C@H](C)[C@@H](O[C@@H]2O[C@H](C)C[C@H](N(C)C)[C@H]2O)[C@@](C)(OC)C[C@@H](C)C(=O)[C@H](C)[C@H]2N(C)C(=O)O[C@]12C [Example 183] | – | – | ≥ 16 µg/mL | 0.5 to 2 µg/mL (≈ 0.555 to 2.22 µM)
CC[C@H]1OC(=O)[C@H](C)[C@@H](O[C@H]2C[C@@](C)(OC)[C@@](O)(CN(C)CCN(CC)C(C)=O)[C@H](C)O2)[C@H](C)[C@@H](O[C@@H]2O[C@H](C)C[C@H](N(C)C)[C@H]2O)[C@@](C)(OC)C[C@@H](C)C(=O)[C@H](C)[C@H]2NC(=O)O[C@@]21C [Example 263] | – | – | ≥ 16 µg/mL | 0.5 to 2 µg/mL (≈ 0.538 to 2.15 µM)
CC[C@H]1OC(=O)[C@H](C)[C@@H](O[C@H]2C[C@@](C)(OC)[C@@](O)(CN(C)CCN(C)C)[C@H](C)O2)[C@H](C)[C@@H](O[C@@H]2O[C@H](C)C[C@H](N(C)C)[C@H]2O)[C@@](C)(OC(=O)NC/C=C/c2ccc3ncccc3c2)C[C@@H](C)C(=O)[C@H](C)[C@H]2NC(=O)O[C@@]21C [Example 348] | – | – | 4 to 8 µg/mL (≈ 3.69 to 7.38 µM) | 0.12 to 0.25 µg/mL (≈ 0.111 to 0.231 µM)
CC[C@H]1OC(=O)[C@H](C)[C@@H](O[C@H]2C[C@@](C)(OC)[C@@](O)(CN(CCOC)CCN(CC)CC)[C@H](C)O2)[C@H](C)[C@@H](O[C@@H]2O[C@H](C)C[C@H](N(C)C)[C@H]2O)[C@@](C)(OC)C[C@@H](C)C(=O)[C@H](C)[C@H]2N(CCNS(C)(=O)=O)C(=O)O[C@]12C [Example 443] | – | – | 4 to 8 µg/mL (≈ 3.7 to 7.4 µM) | 0.12 to 0.25 µg/mL (≈ 0.111 to 0.231 µM)
CC[C@H]1OC(=O)[C@H](C)[C@@H](O[C@H]2C[C@@](C)(OC)[C@@](O)(CN(C)CCN3C4CCC3CC4)[C@H](C)O2)[C@H](C)[C@@H](O[C@@H]2O[C@H](C)C[C@H](N(C)C)[C@H]2O)[C@@](C)(OC)C[C@@H](C)C(=O)[C@H](C)[C@H]2N(CCNS(C)(=O)=O)C(=O)O[C@]12C [Example 446] | – | – | 4 to 8 µg/mL (≈ 3.77 to 7.54 µM) | 0.12 to 0.25 µg/mL (≈ 0.113 to 0.236 µM)
